We go through 34 compounds from PubChem BioAssay AID1508612.

A value given as a limit tells only on which side of the number the result lay.

A short description of this data set: passive permeability, PAMPA, ADME assay (AID 1508612). Conditions: pH 7.4, 30.0 min, 50.0 µM. A general note: In PAMPA a lipid-coated filter parts donor from acceptor wells.

Regarding `COc1ccc(-c2ccc(Nc3nc(-c4ccncc4)nc4ccccc34)cc2F)cc1F`, the apparent permeability (Papp) (as a rule, a coefficient for how fast a substance crosses the barrier) turned out to be 39.9 ×10⁻⁶ cm/s.

Consider `O=[S+]([O-])(Nc1ccccc1)c1ccc(NCc2cccc(C(F)(F)F)c2F)cc1`, for which the Papp worked out at 306 ×10⁻⁶ cm/s. The same measure for `COc1cc2c(cc1Oc1cccc(N(C)C)c1)NC(=O)C21CCN(c2cnccn2)CC1`: > 1000 ×10⁻⁶ cm/s. `CCOC(=O)[C@H]1O[C@H]1C(=O)N[C@@H](CC(C)C)C(=O)NCCC(C)C` yielded a Papp of 89 ×10⁻⁶ cm/s. As for `O=C(Nc1nc(-c2ccccc2)cs1)c1ccncc1NS(=O)(=O)c1ccc2ccccc2c1`, the figure is > 1000 ×10⁻⁶ cm/s; as for `CCCCOc1ccc(C(=O)N2CCC(c3n[nH]c(=O)n3-c3ccc(C)cc3)CC2)cc1`, 892 ×10⁻⁶ cm/s; as for `CCc1cccc(CC)c1-n1c(C=C(C)C)c(C(=O)N2CCNCC2)cc(-c2nc(-c3ccc(C(F)(F)F)cc3)cs2)c1=O`, 33.8 ×10⁻⁶ cm/s. Turning to `CCCc1cc(C)[nH]c(=O)c1CNC(=O)c1cc(-c2ccnc(N3CCN(C)CC3)c2)cc2c1cnn2C(C)C`, the Papp amounted to 782 ×10⁻⁶ cm/s. Consider `Cc1cc(C)nc(NC(=S)N2CCN(c3ccc(Cl)cc3F)CC2)c1`, for which the Papp is > 1000 ×10⁻⁶ cm/s.

In turn, `O=C(NC1CC1)c1nc(-c2cccnc2)c2cnccn12` returned a Papp of 31.8 ×10⁻⁶ cm/s. The same measure for `O=[S+]([O-])(Nc1ccccc1)c1ccc(NCc2ccc(Cl)cc2O)cc1`: 524 ×10⁻⁶ cm/s. The same measure for `O=C1c2ccccc2-n2c1nc1ccccc1c2=O`: 715 ×10⁻⁶ cm/s; for `[2H]C([2H])(Nc1nc(-c2ccccc2C([2H])(C([2H])([2H])[2H])C([2H])([2H])[2H])ncc1C)c1ccc(-n2ccnn2)cc1`: > 1000 ×10⁻⁶ cm/s. As for `COc1ccc(CN2C(=O)[C@@H]3C[C@@H](CN3Cc3cccs3)Oc3ccccc32)cc1`, the figure is 900 ×10⁻⁶ cm/s; as for `CSc1ccc(/C=C/c2nc3ccccc3n2S(=O)(=O)c2ccc(Br)cc2)cc1`, > 1000 ×10⁻⁶ cm/s. With `CC(=O)C1CCN(c2ncc(-c3cccc(N(C)C)c3)s2)CC1`, the Papp was > 1000 ×10⁻⁶ cm/s.

For the compound `c1coc(-c2nc3ccncc3[nH]2)c1`, the apparent permeability (Papp) worked out at 27.9 ×10⁻⁶ cm/s.

`Clc1ccc2ncc(-c3cccc(NC4CCNCC4)n3)n2c1` registered an apparent permeability coefficient (Papp) of 807 ×10⁻⁶ cm/s. Compound `COc1cc(OC)c2c(=O)[nH]c(-c3cc(C)c(OCCO)c(C)c3)nc2c1` returned a Papp of 540 ×10⁻⁶ cm/s. As for `CCOc1ccc(NC(=O)CSC2=Nc3ccccc3C3=NC(CC(=O)NCc4cccs4)C(=O)N23)cc1` (centres undefined), the figure is 25 ×10⁻⁶ cm/s. `Cc1ccc(S(=O)(=O)Nc2ccc(F)cc2C(=O)Nc2nc(-c3ccccc3)cs2)cc1` gave a Papp of 21.4 ×10⁻⁶ cm/s. As for `COc1ccc(-n2nc(C3CCCN(C(=O)c4cccc(OC)c4)C3)[nH]c2=O)cc1` (centres undefined), the figure is 436 ×10⁻⁶ cm/s; as for `COc1ccc(-c2c(-c3cc(C(=O)O)ccn3)ncn2C)cc1`, 3.06 ×10⁻⁶ cm/s. Regarding `CC(C)C(=O)N1CCc2ccc(OCc3nc(C(=O)N4CCCC4)co3)cc2C1c1cccc(F)c1` (centres undefined), the apparent permeability (Papp) was 188 ×10⁻⁶ cm/s. As for `CC[C@H](C)[C@@H]([C@@H](CC(=O)N1CCC[C@H]1[C@H](OC)[C@@H](C)C(=O)N[C@@H](Cc1ccccc1)c1nccs1)OC)N(C)C(=O)[C@@H](NC(=O)[C@H](C(C)C)N(C)C)C(C)C`, the figure is 341 ×10⁻⁶ cm/s.

In the case of `Nc1ccc(S(=O)(=O)Nc2cnccc2C(=O)Nc2nc(-c3ccccc3)cs2)cc1`, the Papp was determined as 101 ×10⁻⁶ cm/s. As for `Cc1ccc(-c2cc(C(=O)Nc3ccc(S(=O)(=O)N(C)Cc4nccs4)cc3)c3ccccc3n2)cc1C`, the figure is < 1 ×10⁻⁶ cm/s; as for `CC(=O)Nc1nc(-c2ccc3c(c2)CCN3C(=O)c2ccccc2C)c(C)s1`, > 1000 ×10⁻⁶ cm/s. As for `CCOC(=O)N1CCN(Cc2nc3cc(NC(=O)c4ccc(OC)cc4)ccc3n2C(C)C)CC1`, the Papp was > 1000 ×10⁻⁶ cm/s.

`COC(=O)c1ccc2c(c1)nc1n2[C@@H](CNC(C)=O)COC1` showed a Papp of 4.45 ×10⁻⁶ cm/s. Compound `CCOC(=O)c1ccc(NC(=O)N2Cc3[nH]cnc3C[C@H]2c2nc(C(C)C)no2)cc1` displayed a Papp of 113 ×10⁻⁶ cm/s. The same measure for `N#Cc1nc(-c2cccc3ccccc23)oc1Nc1ccccc1`: 821 ×10⁻⁶ cm/s. The same measure for `Fc1cc(Nc2nc(-c3ccncc3)nc3ccccc23)ccc1-c1cn[nH]c1`: 36.1 ×10⁻⁶ cm/s. The same measure for `Cc1cc(C)nc(NC(=S)N2CCN(c3ccncc3)CC2)c1`: 450 ×10⁻⁶ cm/s.
